Results on 4 compounds are retold here after patent US20070259860A1, “MGluR5 modulators V” (AstraZeneca AB, priority 2006, published 2007).

The target in data set [1] is hERG-encoded potassium channel (Homo sapiens, UniProt Q12809). The data set can be described thus: hERG IonWorks. The class given is cell-based. A general note: The hERG channel carries a current that helps repolarise heart muscle cells.
For data set [2], the target named is T1, human mGluR5d (Homo sapiens, UniProt P41594).
T1 construct: expressed in transfected cells
T1 sequence (P41594 21-942 isoform P41594-3 limits assumed): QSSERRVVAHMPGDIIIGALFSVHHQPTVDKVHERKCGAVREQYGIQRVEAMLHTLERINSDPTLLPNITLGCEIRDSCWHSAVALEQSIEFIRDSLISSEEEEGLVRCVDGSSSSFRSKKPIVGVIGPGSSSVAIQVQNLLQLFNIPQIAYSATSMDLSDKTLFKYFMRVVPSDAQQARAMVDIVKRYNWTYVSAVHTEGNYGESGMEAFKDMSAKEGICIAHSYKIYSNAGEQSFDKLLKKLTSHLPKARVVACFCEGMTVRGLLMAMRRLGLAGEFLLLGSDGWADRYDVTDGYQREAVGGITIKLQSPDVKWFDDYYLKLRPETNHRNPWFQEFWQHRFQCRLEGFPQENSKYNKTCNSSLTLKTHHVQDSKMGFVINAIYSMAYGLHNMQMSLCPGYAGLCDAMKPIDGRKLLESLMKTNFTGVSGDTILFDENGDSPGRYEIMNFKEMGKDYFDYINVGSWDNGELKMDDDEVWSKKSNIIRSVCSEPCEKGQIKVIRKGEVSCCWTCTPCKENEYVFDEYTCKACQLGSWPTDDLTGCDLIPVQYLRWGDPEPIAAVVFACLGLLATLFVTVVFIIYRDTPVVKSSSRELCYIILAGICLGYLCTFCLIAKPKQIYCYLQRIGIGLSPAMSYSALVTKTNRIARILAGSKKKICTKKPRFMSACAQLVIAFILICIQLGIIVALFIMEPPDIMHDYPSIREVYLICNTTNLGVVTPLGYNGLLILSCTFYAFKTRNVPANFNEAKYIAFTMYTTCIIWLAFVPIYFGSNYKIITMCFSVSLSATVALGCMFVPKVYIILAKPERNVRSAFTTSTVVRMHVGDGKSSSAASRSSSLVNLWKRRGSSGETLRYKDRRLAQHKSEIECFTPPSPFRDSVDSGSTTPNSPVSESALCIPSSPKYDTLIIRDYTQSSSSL
The experiment in a line: FLIPR assay, mGluR5 antagonism in cells expressing human mGluR5d. The note with it: intracellular calcium mobilization, read-out: FLIPR hmGluR5d. The class given is cell-based. An excerpt: The properties of the compounds of the invention can be analyzed using standard assays for pharmacological activity. Examples of glutamate receptor assays are well known in the art as described in for example Aramori et al., Neuron 8:757 (1992), Tanabe et al., Neuron 8:169 (1992), Miller et al., J. Neuroscience 15: 6103 (1995), Balazs, et al., J. Neurochemistry 69:151 (1997). The methodology described in these publications is incorporated herein by reference. Conveniently, the compounds of the invention can be studied by means of an assay (FLIPR) that measures the mobilization of intracellular calcium, [Ca^2+]i in cells expressing mGluR5 or another assay (IP3) that measures inositol phosphate turnover.
Cells expressing human mGluR5d as described in WO97/05252 are seeded at a density of 100,000 cells per well on collagen coated clear bottom 96-well plates with black sides and experiments are done 24 h following seeding. All assays are done in a buffer containing 127 mM NaCl, 5 mM KCl, 2 mM MgCl2, 0.7 mM NaH2PO4, 2 mM CaCl2, 0.422 mg/ml NaHCO3, 2.4 mg/ml HEPES, 1.8 mg/ml glucose and 1 mg/ml BSA Fraction IV (pH 7.4). Cell cultures in the 96-well plates are loaded for 60 minutes in the above mentioned buffer containing 4 μM of the acetoxymethyl ester form of the fluorescent calcium indicator fluo-3 (Molecular Probes, Eugene, Oreg.) in 0.01% pluronic acid (a proprietary, non-ionic surfactant polyol—CAS Number 9003-11-6). Following the loading period the fluo-3 buffer is removed and replaced with fresh assay buffer. FLIPR experiments are done using a laser setting of 0.800 W and a 0.4 second CCD camera shutter speed with excitation and emission wavelengths of 488 nm and 562 nm, respectively. Each experiment is initiated with 160 μl of buffer present in each well of the cell plate. A 40 μl addition from the antagonist plate was followed by a 50 μL addition from the agonist plate. A 90 second interval separates the antagonist and agonist additions. The fluorescence signal is sampled 50 times at 1 second intervals followed by 3 samples at 5 second intervals immediately after each of the two additions. Responses are measured as the difference between the peak height of the response to agonist, less the background fluorescence within the sample period. IC50 determinations are made using a linear least squares fitting program.
(In general: Calcium flux is commonly read through the fluorescence of an indicator in the cells.)

Data set [3] can be described thus: In vitro stability in human liver microsomes (CLint). The note with it: pH 7.4, 0.5 mg/mL protein, 1.0 μmol/L compound, NADPH. The format is in vitro ADME. On the procedure: Rat liver microsomes are prepared from Sprague-Dawley rats liver samples. Human liver microsomes are either prepared from human liver samples or acquired from BD Gentest. The compounds are incubated at 37° C. at a total microsome protein concentration of 0.5 mg/mL in a 0.1 mol/L potassium phosphate buffer at pH 7.4, in the presence of the cofactor, NADPH (1.0 mmol/L). The initial concentration of compound is 1.0 μmol/L. Samples are taken for analysis at 5 time points, 0, 7, 15, 20 and 30 minutes after the start of the incubation. The enzymatic activity in the collected sample is immediately stopped by adding a 3.5 times volume of acetonitrile. The concentration of compound remaining in each of the collected samples is determined by means of LC-MS. The elimination rate constant (k) of the mGluR5 inhibitor is calculated as the slope of the plot of In[mGluR5 inhibitor] against incubation time (minutes). The elimination rate constant is then used to calculate the half-life (T ½) of the mGluR5 inhibitor, which is subsequently used to calculate the intrinsic clearance (CLint) of the mGluR5 inhibitor in liver microsomes as:
CLint.=(ln2×incubation volume)/(T½×protein concentration)=μl/min/mg

Data set [4] can be described thus: Determination of brain to plasma ratio in rat. The class given is in vivo. To be noted: brain and plasma, female Sprague Dawley rats, read-out: Brain/Plasma Ratio of compound in Rat. On the procedure: Brain to plasma ratios are estimated in female Sprague Dawley rats. The compound is dissolved in water or another appropriate vehicle. For determination of brain to plasma ratio the compound is administrated as a subcutaneous, or an intravenous bolus injection, or an intravenous infusion, or an oral administration. At a predetermined time point after the administration a blood sample is taken with cardiac puncture. The rat is terminated by cutting the heart open, and the brain is immediately retained. The blood samples are collected in heparinized tubes and centrifuged within 30 minutes, in order to separate the plasma from the blood cells. The plasma is transferred to 96-well plates and stored at −20° C. until analysis. The brains are divided in half, and each half is placed in a pre-tarred tube and stored at −20° C. until analysis. Prior to the analysis, the brain samples are thawed and 3 ml/g brain tissue of distilled water is added to the tubes. The brain samples are sonicated in an ice bath until the samples are homogenized. Both brain and plasma samples are precipitated with acetonitrile. After centrifugation, the supernatant is diluted with 0.2% formic acid. Analysis is performed on a short reversed-phase HPLC column with rapid gradient elution and MSMS detection using a triple quadrupole instrument with electrospray ionisation and Selected Reaction Monitoring (SRM) acquisition. Liquid-liquid extraction may be used as an alternative sample clean-up. The samples are extracted, by shaking, to an organic solvent after addition of a suitable buffer. An aliquot of the organic layer is transferred to a new vial and evaporated to dryness under a stream of nitrogen. After reconstitution of the residuals the samples are ready for injection onto the HPLC column.

hERG-encoded potassium channel, sequence (Q12809 whole entry): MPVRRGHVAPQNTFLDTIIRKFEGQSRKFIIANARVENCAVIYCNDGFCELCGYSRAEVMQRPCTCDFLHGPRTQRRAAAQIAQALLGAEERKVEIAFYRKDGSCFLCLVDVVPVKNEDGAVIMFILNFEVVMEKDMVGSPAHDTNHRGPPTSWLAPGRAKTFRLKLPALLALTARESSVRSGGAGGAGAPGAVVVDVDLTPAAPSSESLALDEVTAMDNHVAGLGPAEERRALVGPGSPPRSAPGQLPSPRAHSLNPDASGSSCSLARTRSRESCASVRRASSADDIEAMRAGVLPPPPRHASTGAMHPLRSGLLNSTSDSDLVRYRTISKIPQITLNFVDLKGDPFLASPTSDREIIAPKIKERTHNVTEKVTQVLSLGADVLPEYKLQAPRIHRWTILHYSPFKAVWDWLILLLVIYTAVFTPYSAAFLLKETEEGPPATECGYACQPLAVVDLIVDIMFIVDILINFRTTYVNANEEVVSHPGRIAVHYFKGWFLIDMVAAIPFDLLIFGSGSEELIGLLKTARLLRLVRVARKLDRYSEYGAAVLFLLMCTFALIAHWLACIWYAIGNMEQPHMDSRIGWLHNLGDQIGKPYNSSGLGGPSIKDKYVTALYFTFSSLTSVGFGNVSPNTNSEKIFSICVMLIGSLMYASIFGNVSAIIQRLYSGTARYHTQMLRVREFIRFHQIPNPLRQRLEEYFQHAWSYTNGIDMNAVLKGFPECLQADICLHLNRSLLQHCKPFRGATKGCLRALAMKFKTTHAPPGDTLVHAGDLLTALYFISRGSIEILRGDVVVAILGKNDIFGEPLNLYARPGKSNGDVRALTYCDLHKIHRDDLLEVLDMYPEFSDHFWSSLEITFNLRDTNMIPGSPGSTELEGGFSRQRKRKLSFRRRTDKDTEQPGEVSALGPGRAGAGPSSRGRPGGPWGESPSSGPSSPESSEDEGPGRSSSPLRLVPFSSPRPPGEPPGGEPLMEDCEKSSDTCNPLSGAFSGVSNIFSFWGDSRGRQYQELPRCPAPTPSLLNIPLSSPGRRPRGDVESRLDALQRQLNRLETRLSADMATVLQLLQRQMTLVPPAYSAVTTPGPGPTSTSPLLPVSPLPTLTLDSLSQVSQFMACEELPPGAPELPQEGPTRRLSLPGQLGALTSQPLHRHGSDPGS

For the compound `C[C@H](c1cc(-c2cccc(Cl)c2)on1)N1CCCn2c(-c3cn[nH]c(=O)c3)nnc21` [Example 59.3, 5-(8-{1-[5-(3-Chloro-phenyl)-isoxazol-3-yl]-ethyl}-5,6,7,8-tetrahydro-[1,2,4]triazolo[4,3-a]pyrimidin-3-yl)-2H-pyridazin-3-one], the “hERG IonWorks” value in data set [1] came to 15 µM. The IC50 in data set [2] stood at 34 nM. Further, the microsomal CLint – broadly, a measure of how fast metabolising enzymes remove a compound, apart from limits set by blood flow – at 1 μmol/L in data set [3] was below 12 µL/min/mg.

As for `Cc1cccc(-n2nnc(CN3CCCn4c(-c5cccnc5)nnc43)n2)c1` [Example 35.1, 3-Pyridin-3-yl-8-(2-m-tolyl-2H-tetrazol-5-ylmethyl)-5,6,7,8-tetrahydro-[1,2,4]triazolo[4,3-a]pyrimidine], the “hERG IonWorks” value in data set [1] was found to be 26 µM. Further, the IC50 in data set [2] worked out at 37 nM. In addition, the Kp in data set [4] was determined as 0.005. In data set [3], the microsomal CLint at 1 μmol/L is below 12 µL/min/mg.

In the case of `Clc1cccc(-c2nc(CN3CCCn4c(-c5cccnc5)nnc43)no2)c1` [Example 35.2, 8-{[5-(3-chlorophenyl)-1,2,4-oxadiazol-3-yl]methyl}-3-pyridin-3-yl-5,6,7,8-tetrahydro[1,2,4]triazolo[4,3-a]pyrimidine], the IC50 in data set [2] turned out to be 52 nM. Besides, the Kp in data set [4] turned out to be 0.05.

In the case of `Clc1cccc(-c2nc(CN3CCCn4c(-c5cncnc5)nnc43)no2)c1` [Example 35.17, 8-[5-(3-Chloro-phenyl)-[1,2,4]oxadiazol-3-ylmethyl]-3-pyrimidin-5-yl-5,6,7,8-tetrahydro-[1,2,4]triazolo[4,3-a]pyrimidine], in data set [1], the “hERG IonWorks” value stood at 22 µM. For the same compound, the IC50 in data set [2] came to 44 nM. In addition, the Kp in data set [4] came to 0.11. Also, in data set [3], the intrinsic metabolic clearance (microsomal CLint) at 1 μmol/L is 14 µL/min/mg.
